Results published in ChEMBL document CHEMBL2034842, “Synthesis, anti-Candida activity, and cytotoxicity of new (4-(4-iodophenyl)thiazol-2-yl)hydrazine derivatives” (Eur J Med Chem, 2012).
Converted amounts (≈) assume the structure as drawn.

What was measured:
Assay type in all cases: functional
Escherichia coli = test: Antibacterial activity against Escherichia coli after 18 to 22 hrs by […]
Proteus vulgaris = test: Antibacterial activity against Proteus vulgaris after 18 to 22 hrs by […]
Klebsiella aerogenes = test: Antibacterial activity against Enterobacter aerogenes after 18 to 22 hrs by […]
Klebsiella pneumoniae = test: Antibacterial activity against Klebsiella pneumoniae after 18 to 22 hrs by […]
Staphylococcus aureus = test: Antibacterial activity against Staphylococcus aureus after 18 to 22 hrs by […]
Staphylococcus warneri = test: Antibacterial activity against Staphylococcus warneri after 18 to 22 hrs by […]
Streptococcus pyogenes = test: Antibacterial activity against Streptococcus pyogenes after 18 to 22 hrs by […]
Enterococcus faecalis = test: Antibacterial activity against Enterococcus faecalis after 18 to 22 hrs by […]
Candida albicans = test: Antifungal activity against 10 strains of Candida albicans after 24 hrs by […]
Pichia kudriavzevii = test: Antifungal activity against 3 strains of Candida krusei after 24 hrs by […]
Candida parapsilosis = test: Antifungal activity against 4 strains of Candida parapsilosis after 24 hrs by […]; conditions: Lodderomyces parapsilosis
[Candida] sake = Antifungal activity against 2 strains of Candida sake after 24 hrs by […]; conditions: Fermentozyma sake
Nakaseomyces glabratus = test: Antifungal activity against 4 strains of Candida glabrata after 24 hrs by […]
Candida tropicalis = test: Antifungal activity against 4 strains of Candida tropicalis after 24 hrs by […]

SMILES | MIC (Escherichia coli) [µg/mL] | MIC (Proteus vulgaris) [µg/mL] | MIC (Klebsiella aerogenes) [µg/mL] | MIC (Klebsiella pneumoniae) [µg/mL] | MIC (Staphylococcus aureus) [µg/mL] | MIC (Staphylococcus warneri) [µg/mL] | MIC (Streptococcus pyogenes) [µg/mL] | MIC (Enterococcus faecalis) [µg/mL] | MIC (Candida albicans) [µg/mL] | MIC (Pichia kudriavzevii) [µg/mL] | MIC (Candida parapsilosis) [µg/mL] | MIC ([Candida] sake) [µg/mL] | MIC (Nakaseomyces glabratus) [µg/mL] | MIC (Candida tropicalis) [µg/mL]
Ic1ccc(-c2csc(NN=C3CCCC3)n2)cc1 | > 128 | 32 (≈ 83.5 µM) | > 128 | > 128 | 32 (≈ 83.5 µM) | 8 (≈ 20.9 µM) | 8 (≈ 20.9 µM) | 8 (≈ 20.9 µM) | 2 (≈ 5.22 µM) | 2 (≈ 5.22 µM) | 2 (≈ 5.22 µM) | 32 (≈ 83.5 µM) | 2 (≈ 5.22 µM) | 0.5 (≈ 1.3 µM)
Ic1ccc(-c2csc(NN=C3CCCCC3)n2)cc1 | > 128 | > 128 | > 128 | > 128 | 32 (≈ 80.5 µM) | 32 (≈ 80.5 µM) | 8 (≈ 20.1 µM) | 32 (≈ 80.5 µM) | 0.5 (≈ 1.26 µM) | 2 (≈ 5.03 µM) | 2 (≈ 5.03 µM) | 16 (≈ 40.3 µM) | 2 (≈ 5.03 µM) | 2 (≈ 5.03 µM)
CC1CCCC/C1=N\Nc1nc(-c2ccc(I)cc2)cs1 (configuration not stated) | 16 (≈ 38.9 µM) | > 128 | > 128 | 32 (≈ 77.8 µM) | 8 (≈ 19.4 µM) | 4 (≈ 9.72 µM) | 8 (≈ 19.4 µM) | 8 (≈ 19.4 µM) | 0.25 (≈ 0.608 µM) | 128 (≈ 311 µM) | 2 (≈ 4.86 µM) | 128 (≈ 311 µM) | 2 (≈ 4.86 µM) | 0.5 (≈ 1.22 µM)
CC1CCC/C(=N\Nc2nc(-c3ccc(I)cc3)cs2)C1 (configuration not stated) | > 128 | > 128 | > 128 | > 128 | 32 (≈ 77.8 µM) | 4 (≈ 9.72 µM) | 4 (≈ 9.72 µM) | 8 (≈ 19.4 µM) | 2 (≈ 4.86 µM) | 128 (≈ 311 µM) | 2 (≈ 4.86 µM) | 128 (≈ 311 µM) | 4 (≈ 9.72 µM) | 2 (≈ 4.86 µM)
CC1CCC(=NNc2nc(-c3ccc(I)cc3)cs2)CC1 (configuration not stated) | > 128 | > 128 | > 128 | > 128 | 32 (≈ 77.8 µM) | 32 (≈ 77.8 µM) | 2 (≈ 4.86 µM) | 4 (≈ 9.72 µM) | 0.5 (≈ 1.22 µM) | 64 (≈ 156 µM) | 2 (≈ 4.86 µM) | 64 (≈ 156 µM) | 2 (≈ 4.86 µM) | 2 (≈ 4.86 µM)
Ic1ccc(-c2csc(NN=C3CCCCCC3)n2)cc1 | 16 (≈ 38.9 µM) | 16 (≈ 38.9 µM) | 16 (≈ 38.9 µM) | > 128 | > 128 | > 128 | 32 (≈ 77.8 µM) | 32 (≈ 77.8 µM) | 0.25 (≈ 0.608 µM) | 64 (≈ 156 µM) | 2 (≈ 4.86 µM) | 64 (≈ 156 µM) | 2 (≈ 4.86 µM) | 0.5 (≈ 1.22 µM)
Ic1ccc(-c2csc(N/N=C/c3ccco3)n2)cc1 | 32 (≈ 81 µM) | 16 (≈ 40.5 µM) | 32 (≈ 81 µM) | 32 (≈ 81 µM) | > 128 | > 128 | 32 (≈ 81 µM) | 32 (≈ 81 µM) | 0.5 (≈ 1.27 µM) | 64 (≈ 162 µM) | 2 (≈ 5.06 µM) | 64 (≈ 162 µM) | 4 (≈ 10.1 µM) | 2 (≈ 5.06 µM)
C/C(=N\Nc1nc(-c2ccc(I)cc2)cs1)c1ccco1 | > 128 | > 128 | > 128 | > 128 | 32 (≈ 78.2 µM) | 32 (≈ 78.2 µM) | 2 (≈ 4.89 µM) | 8 (≈ 19.5 µM) | 0.25 (≈ 0.611 µM) | 128 (≈ 313 µM) | 2 (≈ 4.89 µM) | 128 (≈ 313 µM) | 2 (≈ 4.89 µM) | 0.5 (≈ 1.22 µM)
Ic1ccc(-c2csc(N/N=C/c3cccs3)n2)cc1 | > 128 | > 128 | > 128 | > 128 | 32 (≈ 77.8 µM) | 32 (≈ 77.8 µM) | 2 (≈ 4.86 µM) | 32 (≈ 77.8 µM) | 2 (≈ 4.86 µM) | 128 (≈ 311 µM) | 2 (≈ 4.86 µM) | 128 (≈ 311 µM) | 4 (≈ 9.73 µM) | 2 (≈ 4.86 µM)
C/C(=N\Nc1nc(-c2ccc(I)cc2)cs1)c1cccs1 | > 128 | > 128 | > 128 | > 128 | 32 (≈ 75.2 µM) | 32 (≈ 75.2 µM) | > 128 | > 128 | 2 (≈ 4.7 µM) | 2 (≈ 4.7 µM) | 0.5 (≈ 1.18 µM) | 4 (≈ 9.4 µM) | 4 (≈ 9.4 µM) | 2 (≈ 4.7 µM)
C/C(=N\Nc1nc(-c2ccc(I)cc2)cs1)c1ccccn1 | > 128 | > 128 | > 128 | 32 (≈ 76.1 µM) | 32 (≈ 76.1 µM) | > 128 | > 128 | > 128 | 0.25 (≈ 0.595 µM) | 64 (≈ 152 µM) | 2 (≈ 4.76 µM) | 64 (≈ 152 µM) | 2 (≈ 4.76 µM) | 0.5 (≈ 1.19 µM)
Ic1ccc(-c2csc(N/N=C/c3cccnc3)n2)cc1 | 16 (≈ 39.4 µM) | > 128 | 16 (≈ 39.4 µM) | > 128 | 32 (≈ 78.8 µM) | > 128 | 32 (≈ 78.8 µM) | 32 (≈ 78.8 µM) | 2 (≈ 4.92 µM) | 64 (≈ 158 µM) | 2 (≈ 4.92 µM) | 64 (≈ 158 µM) | 4 (≈ 9.85 µM) | 2 (≈ 4.92 µM)
C/C(=N\Nc1nc(-c2ccc(I)cc2)cs1)c1cccnc1 | 32 (≈ 76.1 µM) | 16 (≈ 38.1 µM) | > 128 | 32 (≈ 76.1 µM) | > 128 | > 128 | 32 (≈ 76.1 µM) | 32 (≈ 76.1 µM) | 0.25 (≈ 0.595 µM) | 64 (≈ 152 µM) | 2 (≈ 4.76 µM) | 64 (≈ 152 µM) | 2 (≈ 4.76 µM) | 0.5 (≈ 1.19 µM)
Ic1ccc(-c2csc(N/N=C/c3ccncc3)n2)cc1 | > 128 | > 128 | > 128 | > 128 | 32 (≈ 78.8 µM) | 32 (≈ 78.8 µM) | 2 (≈ 4.92 µM) | 2 (≈ 4.92 µM) | 0.25 (≈ 0.615 µM) | 128 (≈ 315 µM) | 2 (≈ 4.92 µM) | 128 (≈ 315 µM) | 2 (≈ 4.92 µM) | 0.5 (≈ 1.23 µM)
Ic1ccc(-c2csc(N/N=C/c3c[nH]c4ccccc34)n2)cc1 | > 128 | > 128 | > 128 | > 128 | 32 (≈ 72 µM) | 32 (≈ 72 µM) | 4 (≈ 9 µM) | 4 (≈ 9 µM) | 0.5 (≈ 1.13 µM) | 4 (≈ 9 µM) | 0.5 (≈ 1.13 µM) | 4 (≈ 9 µM) | 4 (≈ 9 µM) | 2 (≈ 4.5 µM)
Ic1ccc(-c2csc(N/N=C/c3ccc4c(c3)OCO4)n2)cc1 | > 128 | > 128 | > 128 | > 128 | 32 (≈ 71.2 µM) | 32 (≈ 71.2 µM) | > 128 | 32 (≈ 71.2 µM) | 2 (≈ 4.45 µM) | 2 (≈ 4.45 µM) | 2 (≈ 4.45 µM) | 4 (≈ 8.9 µM) | 4 (≈ 8.9 µM) | 2 (≈ 4.45 µM)
C/C(=N\Nc1nc(-c2ccc(I)cc2)cs1)c1ccc2ccccc2c1 | 16 (≈ 34.1 µM) | 16 (≈ 34.1 µM) | 16 (≈ 34.1 µM) | 16 (≈ 34.1 µM) | 8 (≈ 17 µM) | 4 (≈ 8.52 µM) | 8 (≈ 17 µM) | 4 (≈ 8.52 µM) | 2 (≈ 4.26 µM) | 64 (≈ 136 µM) | 2 (≈ 4.26 µM) | 64 (≈ 136 µM) | 4 (≈ 8.52 µM) | 2 (≈ 4.26 µM)
C/C(=N\Nc1nc(-c2ccc(I)cc2)cs1)c1cc2ccccc2oc1=O | 16 (≈ 32.8 µM) | > 128 | > 128 | > 128 | 32 (≈ 65.7 µM) | 4 (≈ 8.21 µM) | 4 (≈ 8.21 µM) | 8 (≈ 16.4 µM) | 2 (≈ 4.1 µM) | 2 (≈ 4.1 µM) | 2 (≈ 4.1 µM) | 4 (≈ 8.21 µM) | 4 (≈ 8.21 µM) | 2 (≈ 4.1 µM)
CC(C)(O/N=C(\C(=O)N[C@@H]1C(=O)N2C(C(=O)[O-])=C(C[n+]3ccccc3)CS[C@H]12)c1csc(N)n1)C(=O)O [CEFTAZIDIME] | 4 (≈ 7.32 µM) | 2 (≈ 3.66 µM) | 2 (≈ 3.66 µM) | 2 (≈ 3.66 µM) | 0.5 (≈ 0.915 µM) | 0.5 (≈ 0.915 µM) | 0.5 (≈ 0.915 µM) | 0.5 (≈ 0.915 µM) | – | – | – | – | – | –
OC(Cn1cncn1)(Cn1cncn1)c1ccc(F)cc1F [FLUCONAZOLE] | – | – | – | – | – | – | – | – | 4 (≈ 13.1 µM) | 4 (≈ 13.1 µM) | 4 (≈ 13.1 µM) | 4 (≈ 13.1 µM) | 4 (≈ 13.1 µM) | 4 (≈ 13.1 µM)
COC1=CC(=O)C[C@@H](C)[C@]12Oc1c(Cl)c(OC)cc(OC)c1C2=O [GRISEOFULVIN] | – | – | – | – | – | – | – | – | 8 (≈ 22.7 µM) | 8 (≈ 22.7 µM) | 8 (≈ 22.7 µM) | 8 (≈ 22.7 µM) | 8 (≈ 22.7 µM) | 8 (≈ 22.7 µM)
